Assay: In vitro binding affinity for PBR (peripheral benzodiazepine receptor) in monkey brain

Ki: 188 pM
Structure (SMILES): COc1ccc(OC)c(CN(C(C)=O)c2cc(F)ccc2Oc2ccccc2)c1

— BindingDB's records for doi:10.1016/s0960-894x(02)00886-7 (National Institute of Radiological Sciences, 2002)
